Results from patent US20100184773A1, “Germline Polymorphisms in the Angiogenic Pathway Predict Tumor Recurrence in Cancer Therapy” (priority 2007, published 2010).

System: Stage III Colon Cancer
Assay: Time to tumor recurrence in patients with stage III colon cancer, by type of adjuvant therapy (retrospective, log-rank test)
Type: in vivo, human
Method: Methods and Patients: One hundred and twenty five patients with stage III colon cancer who were treated with 5-FU-based adjuvant chemotherapy at the University of Southern California/Norris Comprehensive Cancer Center (USC/NCCC) or the Los Angeles County/University of Southern California Medical Center (LAC/USCMC), between 1992 and 2007, were eligible for the present study. This study was conducted at the USC/NCCC and approved by the Institutional Review Board (IRB) of the University of Southern California for Medical Sciences. Patient data were collected retrospectively through chart review. Informed consent was signed by all patients involved in the study.
Statistical analysis: The primary endpoint in this study was time to tumor recurrence (TTR) in stage III colon cancer patients, which was defined as the time from the date of diagnosis of stage III colon cancer to the date of first recurrence, […], or until last contact if the patient was free of any tumor recurrence at the time of last contact. If a patient had not recurred, then TTR was censored at the time of death or at the last follow-up. The associations of time to tumor recurrence with patient's clinico-pathologic characteristics (age, sex, race, tumor grade, T-stage, N-stage and type of chemotherapy) were assessed using univariate survival analyses (log-rank test).
The association between each polymorphism and time to recurrence was examined using Kaplan-Meier curves and log-rank test. The distributions of polymorphisms across demographic characteristics were examined using Fisher's exact test. In the univariate survival analysis, the Pike estimate of relative risk (RR) and its associated 95% confidence interval (95% CI) was based on the log-rank test.

O=c1[nH]cc(F)c(=O)[nH]1 [5-FU, 5-Fluorouracil]
Median time to recurrence (TTR) (patients with stage III colon cancer, by adjuvant therapy, '+' = estimates were not reached): 3.9 yrs | Probability ± SE of 3-year recurrence (stage III colon cancer, by adjuvant therapy, Greenwood SE): 0.47 ± 0.06 | Relative risk (tumor recurrence, stage III colon cancer, reference = 5-FU group, Pike estimate based on log-rank test): 1
